Measured values taken from US20120148685A1, “METHODS AND COMPOSITIONS FOR TREATING INSULIN RESISTANCE, DIABETES MELLITUS TYPE 2, METABOLIC SYNDROME AND RELATED DISORDERS” (Engergy4Life AG, priority 2009, published 2012).
Marks after values point to notes of the source that are not given here.

Experiments:
[1] = Feed intake, body weight development and feed conversion ratio of Zucker rats fed supplemented diets; type: in vivo
From the text: Zucker rats are an established model of human early-onset, hyperplastic-hypertrophic obesity and insulin resistance as well as human non-insulin dependent diabetes mellitus.
(§1) A total of 60 male, 8-10 week old, obese (fa/fa) Zucker rats (Crl:ZUC-Leprfa; Charles River, France) with an initial body weight of 358±24 (mean±SD) g were randomly assigned to five groups of twelve rats each. In addition, 12 male, 8-10 week old, heterozygous lean (fa/+) Zucker rats with an initial body weight of 271±10 g were used as a lean control group. All rats were kept individually in Macrolon cages in a room maintained at 22±1° C. and 50-60% relative humidity with lighting from 06.00 to 18.00 hours. All experimental procedures described followed established guidelines for the care and handling of laboratory animals and were approved by the local Animal Care and Use Committee.
(§2) The rats were fed semi-purified diets which were composed according to the recommendations of the American Institute of Nutrition (AIN)-93G. Five different diets were used differing in their supplementation. […] Diets were prepared by mixing the dry components and subsequent pelleting with a standard pelleting device (Kahl Laborpressanlage Typ 14-175; Reinbek, Germany). Feed was administered ad libitum, and feed intake was recorded weekly. Experimental diets were fed for 4 weeks. Water was available ad libitum from nipple drinkers during the whole experiment.

[2] = Organ weights of the rats; type: in vivo; conditions: obese (fa/fa) Zucker rats, supplemented diet fed 4 wk, means ± SD (n = 12)
Experimental: (§3) All rats were kept individually in Macrolon cages in a room maintained at 22±1° C. and 50-60% relative humidity with lighting from 06.00 to 18.00 hours. All experimental procedures described followed established guidelines for the care and handling of laboratory animals and were approved by the local Animal Care and Use Committee.
(§4) Five different diets were used differing in their supplementation. […] Feed was administered ad libitum, and feed intake was recorded weekly. Experimental diets were fed for 4 weeks. Water was available ad libitum from nipple drinkers during the whole experiment.

[3] = Plasma and lipoprotein lipid concentrations (triacylglycerol, cholesterol; enzymatic kits); type: in vivo, Zucker rats; conditions: for Cholesterol, HDL / Cholesterol, Plasma / Cholesterol, VLDL + LDL / Triacylglycerols, Plasma / Triacylglycerols, VLDL + LDL: obese (fa/fa) Zucker rats, supplemented diet 4 wk, fasted, means ± SD (n = 12); for TAG concentration in plasma compared with the niacin+DHA+carnitine group / TAG concentrations in plasma compared with the control group / Cholesterol in the VLDL+LDL fraction compared with the obese control group / TAG concentration in the VLDL+LDL fraction compared with the obese control group: within the obese rats; for TAG concentration in plasma compared with the niacin+DHA+carnitine group / TAG concentrations in plasma compared with the control group: P<0.05; for Cholesterol in the VLDL+LDL fraction compared with the obese control group / TAG concentration in the VLDL+LDL fraction compared with the obese control group: P<0.05 where different
Experimental: as §1, §2
(§5) The rats were decapitated under CO2 anesthesia in the fasted state. Whole blood was collected into EDTA polyethylene tubes (Sarstedt, Nürnbrecht, Germany). Plasma was separated from whole blood by centrifugation (1,100×g; 10 min) at 4° C. Lipoproteins [VLDL, LDL and high-density lipoproteins (HDL)] were separated by step-wise ultracentrifugation (900,000×g, 1.5 h, 4° C.; Mikro-Ultrazentrifuge, Sorvall Products, Bad Homburg, Germany). All samples were stored at −20° C. pending analysis.
Triacylglycerol and cholesterol concentrations in plasma and lipoproteins were determined using enzymatic reagent kits from Biocon (Vöhl-Marienhagen, Germany).

[4] = Fasting glucose concentration in plasma; type: in vivo, Zucker rats; conditions: for Glucose in plasma: obese (fa/fa) Zucker rats, supplemented diet 4 wk, fasted, means ± SD (n = 12); for Fasting glucose concentration compared with the obese control group: within the obese rats, in words, P<0.05 where different
Experimental: as §1, §2, §5
Glucose concentration in plasma was determined by an enzymatic reagent kit from Analyticon Biotechnologies (Lichtenfels, Germany).

[5] = Non-esterified fatty acids (NEFA) in plasma; type: in vivo, Zucker rats; conditions: for NEFA in plasma: obese (fa/fa) Zucker rats, supplemented diet 4 wk, fasted, means ± SD (n = 12); for NEFA concentrations in plasma compared with the obese control group: within the obese rats, in words, P<0.05
Experimental: as §1, §2, §5
NEFA concentrations in plasma were determined using the NEFA kit from Wako Chemicals (Neuss, Germany).

[6] = test system: leptin; assay: Leptin in plasma (rat ELISA); type: in vivo, Zucker rats; conditions: for Leptin in plasma: obese (fa/fa) Zucker rats, supplemented diet 4 wk, fasted, means ± SD (n = 12); for Leptin concentrations in plasma compared with the obese control group: within the obese rats, in words, P<0.05 where different
Experimental: as §1, §2, §5
(§6) Concentrations of leptin in plasma was determined by rat ELISA kits from BioVendor (Heidelberg, Germany). Concentration of high molecular weight adiponectin was determined by a rat ELISA kit from Shibayagi (Ishihara, Shibukawa, Gunma, Japan).

[7] = test system: high molecular weight adiponectin; assay: High molecular weight adiponectin in plasma (rat ELISA); type: in vivo; conditions: obese (fa/fa) Zucker rats, supplemented diet 4 wk, fasted, means ± SD (n = 12)
Experimental: as §1, §2, §5, §6

[8] = test system: sterol regulatory element-binding protein (SREBP)-1c; assay: Relative mRNA concentration in liver, lipogenesis: SREBP-1c; type: in vivo, Zucker rats
Experimental: as §3, §4

[9] = test system: fatty acid synthase (FAS); assay: Relative mRNA concentration in liver, lipogenesis: FAS; type: in vivo, Zucker rats
Experimental: as §3, §4

[10] = test system: stearoyl-CoA desaturase (SCD); assay: Relative mRNA concentration in liver, lipogenesis: SCD; type: in vivo; conditions: liver of obese Zucker rats, diet 4 wk, obese control = 1.00, means ± SD (n = 12)
Experimental: as §3, §4

[11] = test system: fatty acid binding protein (FABP); assay: Relative mRNA concentration in liver, fatty acid uptake: FABP; type: in vivo, Zucker rats
Experimental: as §3, §4

[12] = test system: fatty acid transport protein (FATP); assay: Relative mRNA concentration in liver, fatty acid uptake: FATP; type: in vivo; conditions: liver of obese Zucker rats, diet 4 wk, obese control = 1.00, means ± SD (n = 12)
Experimental: as §3, §4

[13] = test system: scavenger receptor CD36; assay: Relative mRNA concentration in liver, fatty acid uptake: CD36; type: in vivo; conditions: liver of obese Zucker rats, diet 4 wk, obese control = 1.00, means ± SD (n = 12)
Experimental: as §3, §4

[14] = test system: lipoprotein lipase (LPL); assay: Relative mRNA concentration in liver, fatty acid uptake: LPL; type: in vivo; conditions: liver of obese Zucker rats, diet 4 wk, obese control = 1.00, means ± SD (n = 12)
Experimental: as §3, §4

[15] = test system: acyl-CoA oxidase (ACO); assay: Relative mRNA concentration in liver, fatty acid oxidation: ACO; type: in vivo; conditions: liver of obese Zucker rats, diet 4 wk, obese control = 1.00, means ± SD (n = 12)
Experimental: as §3, §4

[16] = test system: liver-type carnitine-palmitoyltransferase (L-CPT) I; assay: Relative mRNA concentration in liver, fatty acid oxidation: L-CPT I; type: in vivo; conditions: liver of obese Zucker rats, diet 4 wk, obese control = 1.00, means ± SD (n = 12)
Experimental: as §3, §4

[17] = obese (fa/fa) Zucker rats, supplemented diet fed 4 wk, means ± SD (n = 12)
[18] = within the obese rats, in words, P<0.05 where different
[19] = liver of obese Zucker rats, diet 4 wk, obese control = 1.00, means ± SD (n = 12)

With `C[N+](C)(C)CC(O)CC(=O)[O-]` (centres unmarked) [carnitine] the “Daily body weight gain” value [1, 17] was 4.85 ± 0.48 ^a g, the Feed conversion ratio [1, 17] was 5.18 ± 0.63 ^bc g/g and the Feed intake [1, 17] was 25.1 ± 3.4 ^b g/d. The Final body weight [1, 17] was 496 ± 31 ^a g, the “Total body weight gain” value [1, 17] was 138 ± 13 ^a g and the “Daily feed intake compared with the obese control group” value [1, 18] was “did not differ”. For the same molecule, the “Feed conversion ratio compared with the obese control group” value [1, 18] was “did not differ much”, the “Absolute organ weights: Heart” value [2] was 1.36 ± 0.12 g and the “Absolute organ weights: Kidney” value [2] was 2.75 ± 0.66 g. For the same molecule, the “Absolute organ weights: Liver” value [2] was 25.0 ± 2.8 ^a g, the “Relative organ weights: Heart” value [2] was 2.73 ± 0.15 ^b mg/g body weight and the “Relative organ weights: Kidney” value [2] was 5.52 ± 1.17 mg/g body weight. For the same molecule, the “Relative organ weights: Liver” value [2] was 50.4 ± 4.4 ^a mg/g body weight, the “Cholesterol, HDL” value [3] was 4.64 ± 0.50 ^a mmol/L and the “Cholesterol, Plasma” value [3] was 7.68 ± 0.92 ^ab mmol/L. The “Cholesterol, VLDL + LDL” value [3] was 3.12 ± 0.39 ^b mmol/L, the “Triacylglycerols, Plasma” value [3] was 4.41 ± 0.85 ^c mmol/L and the “Triacylglycerols, VLDL + LDL” value [3] was 2.65 ± 0.57 ^b mmol/L. The “TAG concentration in plasma compared with the niacin+DHA+carnitine group” value ([3]; in words) was “lower”, the “TAG concentrations in plasma compared with the control group” value ([3]; in words) was “lower” and the “Cholesterol in the VLDL+LDL fraction compared with the obese control group” value ([3]; in words) was “did not differ”. For the same molecule, the “TAG concentration in the VLDL+LDL fraction compared with the obese control group” value ([3]; in words) was “did not differ”, the Glucose in plasma [4] was 7.86 ± 0.75 ^ab mmol/L and the “Fasting glucose concentration compared with the obese control group” value [4] was “did not differ”. The NEFA in plasma [5] was 2.41 ± 0.57 ^b mmol/L, the “NEFA concentrations in plasma compared with the obese control group” value [5] was “lower” and the Leptin in plasma [6] was 6.09 ± 1.29 ^bc ng/mL. For the same molecule, the “Leptin concentrations in plasma compared with the obese control group” value [6] was “did not differ”, the Adiponectin in plasma [7] was 122 ± 12 ng/mL and the “Relative mRNA concentration, SREBP-1c” value [8, 19] was 0.78 ± 0.31 ^ab. The “Relative mRNA concentration of SREBP-1c in the liver compared with the obese control group” value [8, 18] was “did not differ”, the “Gene expression of fatty acid synthase” value ([9]; conclusions, liver of obese diabetic rats, in words) was “lowered” and the “Relative mRNA concentration, FAS” value [9, 19] was 0.53 ± 0.49 ^b. For the same molecule, the “Relative mRNA concentration of FAS in the liver compared with the obese control group” value [9, 18] was “lower”, the “Relative mRNA concentration, SCD” value [10] was 0.99 ± 0.33 ^a and the “Relative mRNA concentration of FABP in the liver compared with the other groups” value ([11]; in words, P<0.05 where different) was “did not differ”. The “Relative mRNA concentration, FABP” value [11, 19] was 0.83 ± 0.29 ^ab, the “Relative mRNA concentration, FATP” value [12] was 0.93 ± 0.76 and the “Relative mRNA concentration, CD36” value [13] was 0.87 ± 0.22 ^a. The “Relative mRNA concentration, LPL” value [14] was 1.04 ± 0.20, the “Relative mRNA concentration, ACO” value [15] was 1.15 ± 0.37 and the “Relative mRNA concentration, L-CPT I” value [16] was 1.15 ± 0.41.
With `O=C(O)c1cccnc1` [niacin, pyridine-3-carboxylic acid, reference compound] the “Daily body weight gain” value [1, 17] was 4.95 ± 0.73 ^a g, the Feed intake [1, 17] was 26.2 ± 2.3 ^ab g/d and the Final body weight [1, 17] was 500 ± 43 ^a g. The “Total body weight gain” value [1, 17] was 141 ± 19 ^a g, the “Daily feed intake compared with the obese control group” value [1, 18] was “did not differ” and the “Absolute organ weights: Kidney” value [2] was 2.57 ± 0.49 g. For the same molecule, the “Lowering of cholesterol in plasma and VLDL/LDL” value ([3]; conclusions, obese diabetic rats, in words) was “significant effect on lowering”, the “Cholesterol, HDL” value [3] was 4.54 ± 0.54 ^a mmol/L and the “Cholesterol, Plasma” value [3] was 6.91 ± 1.13 ^b mmol/L. The “Cholesterol, VLDL + LDL” value [3] was 2.70 ± 0.27 ^c mmol/L, the “Triacylglycerols, Plasma” value [3] was 3.17 ± 0.40 ^d mmol/L and the “Triacylglycerols, VLDL + LDL” value [3] was 2.08 ± 0.40 ^c mmol/L. The “TAG concentration in plasma compared with the niacin+DHA+carnitine group” value ([3]; in words) was “lower”, the “TAG concentrations in plasma compared with the control group” value ([3]; in words) was “lower” and the “Cholesterol in the VLDL+LDL fraction compared with the obese control group” value ([3]; in words) was “lower”. The “TAG concentration in the VLDL+LDL fraction compared with the obese control group” value ([3]; in words) was “lower”, the Glucose in plasma [4] was 7.36 ± 0.64 ^b mmol/L and the “Fasting glucose concentration compared with the obese control group” value [4] was “lower”. For the same molecule, the NEFA in plasma [5] was 2.25 ± 0.46 ^b mmol/L, the “NEFA concentrations in plasma compared with the obese control group” value [5] was “lower” and the Leptin in plasma [6] was 6.17 ± 0.71 ^b ng/mL. The “Leptin concentrations in plasma compared with the obese control group” value [6] was “higher” and the Adiponectin in plasma [7] was 134 ± 21 ng/mL.
